This note sets out measurements from patent publication US12257247B2 (Monte Rosa Therapeutics AG, priority 2023, dated 2025).

The assay concerns the target T1, VAV1 (Homo sapiens, UniProt P15498+Q96SW2).
T1 construct: A heterozygous VAV1 C-terminal HiBiT knock-in pool was generated at Monte Rosa Therapeutics from a clonal Jurkat cell; endogenous in cells; host or cells: Jurkat clone stably expressing LgBiT, homozygous GSPT1-G575N; heterozygous VAV1-HiBiT knock-in pool
Kind of assay: VAV1 degradation activity, VAV1-HiBiT knock-in Jurkat luminescence assay (Example A, Table 1). The assay is classed as cell-based. Particulars: VAV1-HiBiT knock-in Jurkat cells, luminescence read at 6 and 24 hours; for Dmax: Jurkat. On the procedure: Cells were plated at 10,000 cells per well using Multiflo (BioTek) or Multi Drop Combi (Thermo Fisher) in 384-well white solid bottom plates (Corning, 3570BC) in 25 ul volume in RPMI 1640 media (Thermo Fischer, 22400105) containing 10% FBS (Corning, 35-075-CV), 1% Penicillin/Streptomycin (ThermoFisher Scientific, 15140-122), and 1% Endurazine (Nano-Glo Endurazine Live Cell Substrate (Promega, N2571)). Cells were incubated for ˜16 hours at 37° C., 5% CO2. 25 nL of a compound at 10 μM were dosed into the plate using an Echo® 650 liquid handler (Labcyte). Cells were incubated at 37° C., 5% CO2 and signal was read at 6 and 24 hours after compound addition on a Pherastar FSX using “LUM plus” optic module.
Analysis was performed in Scinamic (Scinamic, Cambridge, MA). Luminescence response (R) was calculated by the formula: response=100*(S−N)/(P−N) where S is the signal of the well, N and P the mean negative and positive control values respectively of the same plate. The luminescence response was then fitted in Scinamic using a 3-parameter agonist logistic fit (hillslope=1, EC50>0, top/bottom unconstrained).
For orientation: With HiBiT, luminescence reflects the tagged protein that the partner subunit can reach.

Setting [1] is: read-out: VAV1 DC50 (nM), class.

Read-outs that look alike come from different tables or passages of the source.

Regarding `O=C1CCC(c2cccc(-c3ccc(Cn4ccccc4=O)cc3)c2Cl)C(=O)N1` (centres unmarked) [Compound 156, 3-(2-chloro-4′-((2-oxopyridin-1(2H)-yl)methyl)-[1,1′-biphenyl]-3-yl)piperidine-2,6-dione], the Dmax by setting is: (read-out: VAV1 Dmax %) 92%; (read-out: VAV1 Dmax %, class) greater than 90%. Moreover, the DC50 was 26 nM (read-out: VAV1 DC50) and no more than 100 nM under setting [1].
In the same order, the values of `Cn1ccc(COc2ccc(-c3cc(C#N)cc(C4CCC(=O)NC4=O)c3Cl)cc2)n1` (centres unmarked) [Compound 157] are 20%, less than 60%, no less than 10000 nM and greater than 1000 nM.
In the same order, the values of `Cn1ccc(=O)n1Cc1ccc(-c2cccc(C3CCC(=O)NC3=O)c2Cl)cc1` (centres unmarked) [Compound 158, 3-(2-chloro-4′-((2-methyl-5-oxo-2,5-dihydro-1H-pyrazol-1-yl)methyl)-[1,1′-biphenyl]-3-yl)piperidine-2,6-dione] are 81.7%, 60 to 90%, 74.3 nM and no more than 100 nM.
The matching figures for `O=C1CCC(c2cccc(-c3ccc(Cc4cnccn4)cc3)c2Cl)C(=O)N1` (centres unmarked) [Compound 159, 3-(2-chloro-4′-(pyrazin-2-ylmethyl)-[1,1′-biphenyl]-3-yl)piperidine-2,6-dione]: 96%, greater than 90%, 14.8 nM and no more than 100 nM.
With `Cn1ccc(OCc2ccc(-c3cccc(C4CCC(=O)NC4=O)c3Cl)cc2)n1` (centres unmarked) [Compound 160, 3-(2-chloro-4′-(((1-methyl-1H-pyrazol-3-yl)oxy)methyl)-[1,1′-biphenyl]-3-yl)piperidine-2,6-dione], the Dmax (read-out: VAV1 Dmax %) came out at 94.5% and the maximal degradation (Dmax) (read-out: VAV1 Dmax %, class) was greater than 90%. In addition, the DC50 runs as follows: (read-out: VAV1 DC50) 18.5 nM; under setting [1], no more than 100 nM.
On to `O=C1CCC(c2cccc(-c3ccc(N4CCCCC4=O)cc3)c2Cl)C(=O)N1` (centres unmarked) [Compound 161, 3-(2-chloro-4′-(2-oxopiperidin-1-yl)-[1,1′-biphenyl]-3-yl)piperidine-2,6-dione], for which the Dmax reads like this: (read-out: VAV1 Dmax %) 95.4%; (read-out: VAV1 Dmax %, class) greater than 90%. In addition, the DC50 was 10.1 nM (read-out: VAV1 DC50) and no more than 100 nM under setting [1].
In the same order, the values of `O=C1CCC(c2cccc(-c3ccc(N4CCCC4=O)cc3)c2Cl)C(=O)N1` (centres unmarked) [Compound 162, 3-(2-chloro-4′-(2-oxopyrrolidin-1-yl)-[1,1′-biphenyl]-3-yl)piperidine-2,6-dione] are 73.1%, 60 to 90%, 283 nM and 100 to 1000 nM.
In the same order, the values of `O=C1CCC(c2cccc(-c3ccc(N4CCC4=O)cc3)c2Cl)C(=O)N1` (centres unmarked) [Compound 163, 3-(2-chloro-4′-(2-oxoazetidin-1-yl)-[1,1′-biphenyl]-3-yl)piperidine-2,6-dione] are 44.7%, less than 60%, no less than 10000 nM and greater than 1000 nM.
In the same order, the values of `Cn1ccc(-c2ccc(-c3cccc(C4CCC(=O)NC4=O)c3Cl)cc2)n1` (centres unmarked) [Compound 164, 3-(2-chloro-4′-(1-methyl-1H-pyrazol-3-yl)-[1,1′-biphenyl]-3-yl)piperidine-2,6-dione] are 71.9%, 60 to 90%, 542 nM and 100 to 1000 nM.
`CC(Oc1ccccn1)c1ccc(-c2cccc(C3CCC(=O)NC3=O)c2Cl)cc1` (centres unmarked) [Compound 165, 3-(2-chloro-4′-(1-(pyridin-2-yloxy)ethyl)-[1,1′-biphenyl]-3-yl)piperidine-2,6-dione]: the Dmax is, setting by setting: (read-out: VAV1 Dmax %) 90.2%; (read-out: VAV1 Dmax %, class) greater than 90%. Further, the DC50 runs as follows: (read-out: VAV1 DC50) 47.7 nM; under setting [1], no more than 100 nM.
In the same order, the values of `O=C1CCC(c2cccc(-c3ccc(N4CCC(Cn5ccccc5=O)CC4)cc3)c2Cl)C(=O)N1` (centres unmarked) [Compound 166, 3-(2-chloro-4′-(4-((2-oxopyridin-1(2H)-yl)methyl)piperidin-1-yl)-[1,1′-biphenyl]-3-yl)piperidine-2,6-dione] are 61.5%, 60 to 90%, 517 nM and 100 to 1000 nM.
With `O=C1CCC(c2cccc(-c3ccc(OCc4c[nH]cn4)cc3)c2Cl)C(=O)N1` (centres unmarked) [Compound 167, 3-(4′-((1H-imidazol-4-yl)methoxy)-2-chloro-[1,1′-biphenyl]-3-yl)piperidine-2,6-dione], the Dmax reads like this: (read-out: VAV1 Dmax %) 87.3%; (read-out: VAV1 Dmax %, class) 60 to 90%. Further, the DC50 is 38.5 nM (read-out: VAV1 DC50) and no more than 100 nM under setting [1].
Take `O=C1CCC(c2cccc(-c3ccc(CN4CCCCC4=O)cc3)c2Cl)C(=O)N1` (centres unmarked) [Compound 168, 3-(2-chloro-4′-((2-oxopiperidin-1-yl)methyl)-[1,1′-biphenyl]-3-yl)piperidine-2,6-dione]: the Dmax runs as follows: (read-out: VAV1 Dmax %) 91.5%; (read-out: VAV1 Dmax %, class) greater than 90%. For the same compound, the DC50 (read-out: VAV1 DC50) turned out to be 18.8 nM and the DC50 under setting [1] was no more than 100 nM.
The matching figures for `O=C1CCC(c2cccc(-c3ccc(Cc4ccccn4)cc3)c2Cl)C(=O)N1` (centres unmarked) [Compound 169, 3-(2-chloro-4′-(pyridin-2-ylmethyl)-[1,1′-biphenyl]-3-yl)piperidine-2,6-dione]: 98%, greater than 90%, 5.59 nM and no more than 100 nM.
For `O=C1CCC(c2cccc(-c3ccc(Cn4ccc(F)cc4=O)cc3)c2Cl)C(=O)N1` (centres unmarked) [Compound 170, 3-(2-chloro-4′-((4-fluoro-2-oxopyridin-1(2H)-yl)methyl)-[1,1′-biphenyl]-3-yl)piperidine-2,6-dione], the Dmax reads like this: (read-out: VAV1 Dmax %) 94.2%; (read-out: VAV1 Dmax %, class) greater than 90%. In addition, the DC50 by setting is: (read-out: VAV1 DC50) 69.7 nM; under setting [1], no more than 100 nM.
`O=C1CCC(c2cccc(-c3ccc(Cn4ccc(C(F)(F)F)cc4=O)cc3)c2Cl)C(=O)N1` (centres unmarked) [Compound 171, 3-(2-chloro-4′-((2-oxo-4-(trifluoromethyl)pyridin-1(2H)-yl)methyl)-[1,1′-biphenyl]-3-yl)piperidine-2,6-dione]: the Dmax was 94.9% (read-out: VAV1 Dmax %) and greater than 90% (read-out: VAV1 Dmax %, class). The DC50 is, setting by setting: (read-out: VAV1 DC50) 93.8 nM; under setting [1], no more than 100 nM.
For the compound `C#Cc1ccc(C2CCC(=O)NC2=O)c(Cl)c1-c1ccc(OCc2ccn(C)n2)cc1` (centres unmarked) [Compound 172, 3-(2-chloro-6-ethynyl-4′-((1-methyl-1H-pyrazol-3-yl)methoxy)-[1,1′-biphenyl]-3-yl)piperidine-2,6-dione], the Dmax runs as follows: (read-out: VAV1 Dmax %) 24.7%; (read-out: VAV1 Dmax %, class) less than 60%. Further, the DC50 (read-out: VAV1 DC50) was no less than 10000 nM and the DC50 under setting [1] is greater than 1000 nM.
For `CC(Oc1ccc(-c2cccc(C3CCC(=O)NC3=O)c2Cl)cc1)c1ccn(C)n1` (centres unmarked) [Compound 173, 3-(2-chloro-4′-(1-(1-methyl-1H-pyrazol-3-yl)ethoxy)-[1,1′-biphenyl]-3-yl)piperidine-2,6-dione], the Dmax (read-out: VAV1 Dmax %) was 88.1% and the Dmax (read-out: VAV1 Dmax %, class) lay in the range of 60 to 90%. In addition, the DC50 (read-out: VAV1 DC50) turned out to be 40.2 nM and the DC50 under setting [1] is no more than 100 nM.
In the same order, the values of `CC(c1ccc(-c2cccc(C3CCC(=O)NC3=O)c2Cl)cc1)n1ccccc1=O` (centres unmarked) [Compound 174, 3-(2-chloro-4′-(1-(2-oxopyridin-1(2H)-yl)ethyl)-[1,1′-biphenyl]-3-yl)piperidine-2,6-dione] are 92.2%, greater than 90%, 27.4 nM and no more than 100 nM.
With `COc1ccn(Cc2ccc(-c3cccc(C4CCC(=O)NC4=O)c3Cl)cc2)c(=O)c1` (centres unmarked) [Compound 175, 3-[2-chloro-3-[4-[(4-methoxy-2-oxo-1-pyridyl)methyl]phenyl]phenyl]piperidine-2,6-dione], the Dmax was 87.1% (read-out: VAV1 Dmax %) and 60 to 90% (read-out: VAV1 Dmax %, class). The DC50 runs as follows: (read-out: VAV1 DC50) 31.6 nM; under setting [1], no more than 100 nM.
As for `Cn1ccc(Cc2ccc(-c3cccc(C4CCC(=O)NC4=O)c3Cl)cc2)n1` (centres unmarked) [Compound 176, 3-(2-chloro-4′-((1-methyl-1H-pyrazol-3-yl)methyl)-[1,1′-biphenyl]-3-yl)piperidine-2,6-dione], the Dmax (read-out: VAV1 Dmax %) was determined as 98% and the Dmax (read-out: VAV1 Dmax %, class) is greater than 90%. Besides, the DC50 reads like this: (read-out: VAV1 DC50) 4.41 nM; under setting [1], no more than 100 nM.
For `Cn1ccc(COc2ccc(-c3cccc(C4CCC(=O)NC4=O)c3Cl)c(Cl)c2)n1` (centres unmarked) [Compound 177, 3-(2,2′-dichloro-4′-((1-methyl-1H-pyrazol-3-yl)methoxy)-[1,1′-biphenyl]-3-yl)piperidine-2,6-dione], the Dmax reads like this: (read-out: VAV1 Dmax %) 29.2%; (read-out: VAV1 Dmax %, class) less than 60%. Besides, the DC50 (read-out: VAV1 DC50) is no less than 10000 nM and the DC50 under setting [1] is greater than 1000 nM.
In the same order, the values of `O=C1CCC(c2cccc(-c3ccc(CCCn4ccccc4=O)cc3)c2Cl)C(=O)N1` (centres unmarked) [Compound 178, 3-(2-chloro-4′-(3-(2-oxopyridin-1(2H)-yl)propyl)-[1,1′-biphenyl]-3-yl)piperidine-2,6-dione] are 81.1%, 60 to 90%, 239 nM and 100 to 1000 nM.

The term Dmax denotes the greatest extent of degradation seen. In general, DC50 refers to the concentration at which degradation of the target reaches its halfway point.
